Data reported in BindingDB's records for doi:10.1021/jm00017a010 (Sapienza University of Rome, 1995).
pIC50: −log10 of the molar value.

What follows are compounds tested against T1, Gag-Pol polyprotein [588-1027]/[588-1147] (Human immunodeficiency virus 1, UniProt P04585) (assay: HIV-1 RT Assay). Conditions: not given.
T1 construct: 588-1027; 588-1147
Description: The IC50 of reverse transcriptase is the concentration that inhibits 50% of recombinant HIV-1 RT RNA-directed DNA polymerase activity in vitro.
`CC1(C)C(=O)NC(SC2CCCC2)=N/C1=C/c1ccccc1` [(6E)-2-(cyclopentylsulfanyl)-5,5-dimethyl-6-(phenylmethylidene)-3,4,5,6-tetrahydropyrimidin-4-one] was tested, and the pIC50 was less than 5.00. `CC1(C)C(=O)NC(SC2CCCCC2)=N/C1=C/c1ccccc1` [S-DABO] gave a pIC50 of less than 5.00.

Same assay, conditions: pH 7.8; 37 °C
In the case of `CSc1nc(O)cc(Cc2cccc(C)c2)n1` [S-DABO], the pIC50 was less than 5.00. In the case of `Cc1cccc(Cc2nc(S)nc(O)c2C)c1` [4-Hydroxy-2-mercapto-5-methyl-6-(3-methylbenzyl)pyrimidine], the pIC50 was less than 5.00. Work on `Cc1cccc(Cc2cc(=O)[nH]c(=S)[nH]2)c1` [6-[(3-methylphenyl)methyl]-2-sulfanylidene-1,2,3,4-tetrahydropyrimidin-4-one] yielded a pIC50 of less than 5.00. For `CSc1nc(Cc2ccccc2)cc(=O)[nH]1` [S-DABO], the pIC50 was less than 5.00. `CC(C)Sc1nc(Cc2ccccc2)cc(=O)[nH]1` [S-DABO] was tested, and the pIC50 was less than 5.00. `Cc1c(O)nc(S)nc1Cc1ccccc1` [6-benzyl-4-hydroxy-2-mercapto-5-methylpyrimidine] was tested, and the pIC50 was less than 5.00.
